Assays:
purified human ERO1α = molecular target: T1, purified human ERO1α (Homo sapiens, UniProt Q96HE7, C104A/C131A/C166A); assay: Recombinant ERO1α enzyme assay (Amplex Red); type: biochemical; settings: ratio of enzyme IC50 values
T1 construct: made in house
T1 sequence (Q96HE7 22-468 C104A/C131A/C166A): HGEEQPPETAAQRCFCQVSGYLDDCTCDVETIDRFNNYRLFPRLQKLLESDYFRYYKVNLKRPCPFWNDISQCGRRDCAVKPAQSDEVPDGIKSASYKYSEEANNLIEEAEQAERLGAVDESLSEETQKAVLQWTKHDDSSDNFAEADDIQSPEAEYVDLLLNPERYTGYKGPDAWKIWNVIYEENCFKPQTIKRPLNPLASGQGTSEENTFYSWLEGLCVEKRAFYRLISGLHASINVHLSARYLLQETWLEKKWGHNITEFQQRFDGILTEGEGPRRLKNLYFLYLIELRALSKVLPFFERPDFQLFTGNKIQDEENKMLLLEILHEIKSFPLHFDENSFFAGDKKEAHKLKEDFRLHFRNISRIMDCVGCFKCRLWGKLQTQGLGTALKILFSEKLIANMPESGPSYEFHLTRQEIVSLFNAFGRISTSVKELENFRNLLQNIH
Protocol: Based on previous work which established an aurone chemical class of compounds as FAD containing enzyme inhibitors^37, we evaluated sulfuretin analogs for ERO1α enzyme inhibition.
Quantification of enzymatic activity of ERO1α was performed using the Amplex Red as previously described^6.

ERO1β = molecular target: T2, ERO1β (Homo sapiens, UniProt Q86YB8); assay: Cellular thermal shift assay (CETSA) in PC-9 cells, ERO1β; type: cell-based; settings: 100 μM
T2 construct: endogenous in cells; host or cells: PC-9
T2 sequence (Q86YB8 34-467): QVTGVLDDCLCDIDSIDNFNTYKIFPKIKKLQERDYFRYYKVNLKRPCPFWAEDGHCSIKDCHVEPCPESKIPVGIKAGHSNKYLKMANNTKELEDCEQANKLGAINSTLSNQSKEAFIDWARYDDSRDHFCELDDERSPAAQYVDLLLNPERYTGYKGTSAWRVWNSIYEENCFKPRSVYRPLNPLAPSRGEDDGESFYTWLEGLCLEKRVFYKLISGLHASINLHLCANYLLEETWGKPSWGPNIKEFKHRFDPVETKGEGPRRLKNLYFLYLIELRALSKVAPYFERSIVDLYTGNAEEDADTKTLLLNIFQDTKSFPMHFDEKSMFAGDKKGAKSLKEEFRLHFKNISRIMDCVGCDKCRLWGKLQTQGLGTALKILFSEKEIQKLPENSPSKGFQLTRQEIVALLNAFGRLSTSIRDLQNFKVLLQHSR
Text: To date activity of T151742 towards other flavoenzymes has not been identified at this time. We utilized the Cellular Thermal Shift Assay (CETSA) to determine target engagement of T151742 in vitro using the non-small cell lung cancer (NSCLC) cell line PC-9. The EGFR driven PC-9 cell line was chosen as new treatment strategies are needed in EGFR driven NSCLC as most patients relapse and become resistant to current targeted therapies with development of further mutations such as T790M, C797S as well as emergence of EGFR independent tumors^42, 43. […] First, we determined the aggregation temperature (Tagg) of ERO1α, ERO1β, and LSD-1, which are all FAD dependent enzymes and potential in vitro targets of T15742. […]
Upon addition of T151742, Tagg was quantified for ERO1α, ERO1β, and LSD-1. Quantification of the average of n=3 independent experiments based on western blot analysis for ERO1α, ERO1β, and LSD-1. […] Cellular viability was determined by MTT assay. n=3 independent experiments performed in quadruplicates. ****p<0.0001; by two-way ANOVA.
Cell Lines: PC-9 cell line used was obtained from Sigma Aldrich and grown in RPMI 1640 medium with 10% fetal bovine serum and 1% penicillin/streptomycin. […] Plate was then read on the BioTek Cytation 5 at 530/590 nm. […]

Structure (SMILES): CN(C)c1ccc(/C=C2\Oc3cc(O)ccc3C2=O)cc1 [Compound T151742]
- fold more potent compared to EN-460 (purified human ERO1α): approximately 2 fold
- change of Tagg for ERO1β (ERO1β): did not change
